Laboratory results published in patent US20220304978A1, “INHIBITING MESANGIAL CELL ACTIVATION” (Chinook Therapeutics, Inc., priority 2019, published 2022).

Tested on: kidney tissue of g-ddY mice
Assay: RNA-seq differential gene expression in kidney tissue of g-ddY mice
Format: in vivo, mouse
Procedure: RNA isolation and sequencing libraries were generated using standard protocols. Sequencing was performed using an Illumina NextSeq500 using manufacturer's instructions with a read length of 75 bp and a read depth of 30 million. Raw data was assembled to FASTQ files. Following QC analysis, high quality sequencing reads (e.g., reads with a Phred quality score >36) were aligned to the mouse reference genome (GRCm38-mm10) using the default parameters of the align algorithm and transcript count tables of each library was generated using the default parameters of the featureCounts algorithm of the RSubread package (Liao Y, Smyth GK, Shi W, 2019). High quality sequencing reads mapped to 27,129 genes. Following additional QC of low count filtering (i.e. transcripts <10 counts across all samples), 16,207 genes were identified and used for further analysis. The remaining sequencing read counts of the included 16,207 genes were normalized to library size, log-transformed, and were quantified as counts per million (CPM). Select RNA-seq counts were validated using qPCR. Sequencing read counts (CPM) were used for identification of differential gene expression between specified populations using the quasi-likelihood methodology of the edgeR package. […] MA plots were generated using edgeR. Heatmaps and other plots were generated using the gplots and ggplot2 package.

[1] = 20 mg/kg/day vs control, cell proliferation signaling
[2] = 20 mg/kg/day vs control, inflammatory response signaling
[3] = 20 mg/kg/day vs control, mesangial cell signature
[4] = 30 mg/kg/day vs control, IL6 signaling
[5] = 30 mg/kg/day vs control, NF-kB signaling
[6] = 30 mg/kg/day vs control, PDGF signaling
[7] = 30 mg/kg/day vs control, cell proliferation signaling
[8] = 30 mg/kg/day vs control, inflammatory response signaling
[9] = 30 mg/kg/day vs control, mesangial cell signature

## CCCCN(CCCC)C(=O)CN1C[C@H](c2ccc3c(c2)OCO3)[C@@H](C(=O)O)[C@@H]1c1ccc(OC)cc1 [atrasentan, (2R,3R,4S)-4-(1,3-benzodioxol-5-yl)-1-[2-(dibutylamino)-2-oxoethyl]-2-(4-methoxyphenyl)pyrrolidine-3-carboxylic acid]
[1]
  Rapgef5 logFC: −0.3804
  Rhot2 logFC: 0.4576
  Slc7a1 logFC: −0.7304
  Slc12a2 logFC: −0.3373
  Slc38a1 logFC: −0.6989
  Smc3 logFC: −0.1696
  Sorbs2 logFC: −0.4717
  Tiam1 logFC: −0.9494
  Tuba4a logFC: 0.2861
  Vcl logFC: −0.3317
  Ythdc1 logFC: −0.0815
[2]
  Btg2 logFC: −0.6974
  Cdkn1a logFC: 0.2546
  Chst2 logFC: −0.368
  Csf1 logFC: −1.089
  Edn1 logFC: −1.328
  Eif2ak2 logFC: −0.3002
  F3 logFC: −0.5235
  Gabbr1 logFC: −0.1316
  Hpn logFC: 0.4187
  Il1r1 logFC: −0.8263
  Ly6e logFC: 0.2436
  Nfkb1 logFC: −0.616
  Nfkbia logFC: −0.7041
  Rnf144b logFC: −0.9765
  Ros1 logFC: −1.992
  Serpine1 logFC: −1.501
  Slc4a4 logFC: 0.5245
  Slc7a1 logFC: −0.7304
  Slc7a2 logFC: −1.336
  Slc11a2 logFC: 0.35
[3]
  Ahnak logFC: −0.7128
  Akap12 logFC: −0.5404
  Akt3 logFC: −0.4673
  Aldob logFC: 0.4923
  Ankrd12 logFC: −0.2463
  C7 logFC: −1.277
  Cald1 logFC: −0.5361
  Cblb logFC: −0.2068
  Ebf1 logFC: −0.3512
  Epb41l2 logFC: −0.6149
  Ets1 logFC: −0.3065
  Fchsd2 logFC: −0.1882
  Frmd4a logFC: −0.3955
  Gata3 logFC: −0.4924
  Gpx3 logFC: 0.71
  Igfbp7 logFC: 0.1088
  Lama2 logFC: −0.4437
  Maml2 logFC: −0.2311
  Mef2c logFC: −0.6302
  Meis1 logFC: −0.3593
  Myh9 logFC: −0.4543
  Myo1e logFC: −0.292
  Nbea logFC: −0.1933
  Nfkbia logFC: −0.7041
  Nr4a1 logFC: −1.621
  Piezo2 logFC: −0.6148
  Postn logFC: −2.293
  Pparg logFC: −0.5616
  Ppp1r12a logFC: −0.2135
  Prkg1 logFC: −0.328
  Psd3 logFC: −0.5227
  Ptprm logFC: −0.2678
  Rapgef5 logFC: −0.3804
  Raph1 logFC: −0.3852
  Rbms3 logFC: −0.7192
  Robo1 logFC: −0.7261
  Stard13 logFC: −0.6367
  Tacc1 logFC: −0.3693
  Tcf4 logFC: −0.224
  Tjp1 logFC: −0.3054
  Tns3 logFC: −0.3043
  Unc5c logFC: 0.3685
  Utrn logFC: −0.5143
  Zeb2 logFC: −0.6492
[4]
  Cntfr logFC: −0.9365
  Csf1 logFC: −1.26
  Il1r1 logFC: −0.6078
  Il2ra logFC: −1.58
  Map3k8 logFC: −0.8664
[5]
  Ackr3 logFC: 0.5485
  Btg1 logFC: −0.4825
  Btg2 logFC: −0.6689
  Ccn1 logFC: −0.9198
  Ccnd1 logFC: 0.6947
  Cdkn1a logFC: 0.6369
  Csf1 logFC: −1.26
  Dnajb4 logFC: −0.7534
  Edn1 logFC: −1.688
  Efna1 logFC: 0.7278
  Ehd1 logFC: 0.4138
  F3 logFC: −0.564
  Fosl2 logFC: −1.205
  Gem logFC: −1.912
  Id2 logFC: 0.5394
  Ifit2 logFC: −0.6119
  Jag1 logFC: −0.6784
  Klf2 logFC: −0.7182
  Klf4 logFC: −0.9474
  Map3k8 logFC: −0.8664
  Nfat5 logFC: −0.5845
  Nfkb1 logFC: −0.6498
  Nfkbia logFC: −0.7307
  Nr4a1 logFC: −1.803
  Nr4a2 logFC: −1.728
  Nr4a3 logFC: −1.939
  Per1 logFC: −0.9307
  Pfkfb3 logFC: −1.485
  Pnrcl logFC: 0.4856
  Rel logFC: −1.298
  Rhob logFC: −0.7265
  Serpine1 logFC: −1.387
  Snn logFC: 0.4725
  Spsb1 logFC: −1.097
  Tnfaip8 logFC: 0.517
  Traf1 logFC: −1.371
  Trib1 logFC: −1.074
  Zbtb10 logFC: −0.2912
[6]
  Hras logFC: 0.4354
  Map3k1 logFC: −0.7636
  Nfkb1 logFC: −0.6498
  Nfkbia logFC: −0.7307
  Pdgfb logFC: −0.5424
  Pdgfra logFC: −0.7094
  Pik3cg logFC: −0.7287
  Pik3r1 logFC: −0.6223
  Pla2g4a logFC: −0.9024
  Tiam1 logFC: −1.227
[7]
  Arid4a logFC: −0.5719
  Atrx logFC: −0.4031
  Bcar1 logFC: 0.4182
  Ccdc88a logFC: −0.7206
  Ccnd1 logFC: 0.6947
  Cep192 logFC: −0.43
  Cntrl logFC: −0.5569
  Dmd logFC: −0.405
  Epb41l2 logFC: −0.7021
  Fgd6 logFC: −0.6983
  Flna logFC: −0.6183
  Itsn1 logFC: −0.5129
  Kmt5a logFC: 0.4169
  Meis1 logFC: −0.4934
  Myh9 logFC: −0.6171
  Myh10 logFC: −0.5242
  Myo1e logFC: −0.4177
  Nin logFC: −0.7352
  Ophn1 logFC: −0.7129
  Rapgef5 logFC: −0.4225
  Rhot2 logFC: 0.5432
  Slc7a1 logFC: −0.7952
  Slc12a2 logFC: −0.3306
  Slc38a1 logFC: −0.8108
  Smc3 logFC: −0.4558
  Sorbs2 logFC: −0.3601
  Tiam1 logFC: −1.227
  Tuba4a logFC: 0.4958
  Vcl logFC: −0.3604
  Ythdc1 logFC: −0.3579
[8]
  Btg2 logFC: −0.6689
  Cdkn1a logFC: 0.6369
  Chst2 logFC: −0.9214
  Csf1 logFC: −1.26
  Edn1 logFC: −1.688
  Eif2ak2 logFC: −0.5033
  F3 logFC: −0.564
  Gabbr1 logFC: −0.5762
  Hpn logFC: 0.6197
  Il1r1 logFC: −0.6078
  Ly6e logFC: 0.6857
  Nfkb1 logFC: −0.6498
  Nfkbia logFC: −0.7307
  Rnf144b logFC: −0.8848
  Ros1 logFC: −1.985
  Serpine1 logFC: −1.387
  Slc4a4 logFC: 0.6146
  Slc7a1 logFC: −0.7952
  Slc7a2 logFC: −0.9808
  Slc11a2 logFC: 0.4205
[9]
  Ahnak logFC: −1.013
  Akap12 logFC: −0.8211
  Akt3 logFC: −0.4843
  Aldob logFC: 0.748
  Ankrd12 logFC: −0.4726
  C7 logFC: −1.079
  Cald1 logFC: −0.506
  Cblb logFC: −0.4288
  Ebf1 logFC: −0.4506
  Epb41l2 logFC: −0.7021
  Ets1 logFC: −0.3379
  Fchsd2 logFC: −0.3772
  Frmd4a logFC: −0.5742
  Gata3 logFC: −0.5216
  Gpx3 logFC: 1.122
  Igfbp7 logFC: 0.4259
  Lama2 logFC: −0.4895
  Maml2 logFC: −0.4441
  Mef2c logFC: −0.6869
  Meis1 logFC: −0.4934
  Myh9 logFC: −0.6171
  Myo1e logFC: −0.4177
  Nbea logFC: −0.432
  Nfkbia logFC: −0.7307
  Nr4a1 logFC: −1.803
  Piezo2 logFC: −0.8237
  Postn logFC: −1.247
  Pparg logFC: −0.6781
  Ppp1r12a logFC: −0.3826
  Prkg1 logFC: −0.6356
  Psd3 logFC: −0.5843
  Ptprm logFC: −0.5453
  Rapgef5 logFC: −0.4225
  Raph1 logFC: −0.5358
  Rbms3 logFC: −0.8895
  Robo1 logFC: −0.6009
  Stard13 logFC: −0.8466
  Tacc1 logFC: −0.4924
  Tcf4 logFC: −0.3055
  Tjp1 logFC: −0.3989
  Tns3 logFC: −0.4522
  Unc5c logFC: 0.9517
  Utrn logFC: −0.7697
  Zeb2 logFC: −0.6778
